Measurements as given in paper PMC10824666 (Nature Cancer, 2023).
Where two headings read alike, the source gives them in different places. One block for each compound: values may come before it.

Experiments:
Test in all cases: biochemical
Set-up in all cases: Eurofins DiscoverX kinase panel, competitive binding assay at 1 uM, percent of DMSO control
Settings in all cases: competitive binding, percent of DMSO control
INSR = INSR (Homo sapiens, UniProt P06213)
Outline: (§1)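 Single-point profiling at 1 µM compound in a competition-binding format against 96 kinases, read out as POC relative to control; n = 1.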

TNIK = TNIK (Homo sapiens, UniProt Q9UKE5)
Outline: as §1

mTOR = mTOR (Homo sapiens, UniProt P42345)
Outline: as §1

CDK2 = CDK2 (Homo sapiens, UniProt P24941)
Outline: as §1

LIMK1 = LIMK1 (Homo sapiens, UniProt P53667)
Chain of LIMK1 (P53667 whole entry): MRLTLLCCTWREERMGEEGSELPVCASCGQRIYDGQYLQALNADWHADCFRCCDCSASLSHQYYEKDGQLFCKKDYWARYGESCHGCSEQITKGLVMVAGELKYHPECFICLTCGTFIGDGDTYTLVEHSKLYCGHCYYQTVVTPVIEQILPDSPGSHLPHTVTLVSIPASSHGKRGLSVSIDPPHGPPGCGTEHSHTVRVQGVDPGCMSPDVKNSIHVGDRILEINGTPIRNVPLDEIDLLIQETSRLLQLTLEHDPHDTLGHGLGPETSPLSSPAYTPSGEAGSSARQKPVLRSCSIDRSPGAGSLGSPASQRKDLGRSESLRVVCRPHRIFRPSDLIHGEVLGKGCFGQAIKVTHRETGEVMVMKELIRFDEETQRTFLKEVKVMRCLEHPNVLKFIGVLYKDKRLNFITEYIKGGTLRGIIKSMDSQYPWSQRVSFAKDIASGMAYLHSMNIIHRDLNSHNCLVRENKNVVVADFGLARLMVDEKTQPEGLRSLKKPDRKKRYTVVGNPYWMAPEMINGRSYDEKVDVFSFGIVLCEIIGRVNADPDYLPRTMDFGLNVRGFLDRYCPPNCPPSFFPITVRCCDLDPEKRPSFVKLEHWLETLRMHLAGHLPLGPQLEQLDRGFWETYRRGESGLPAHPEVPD
Outline: as §1

Abl_phos = molecular target: T1, Abl_phos (Homo sapiens, UniProt P00519)
T1 construct: gene ABL1; phosphorylated
T1 sequence (P00519 whole entry): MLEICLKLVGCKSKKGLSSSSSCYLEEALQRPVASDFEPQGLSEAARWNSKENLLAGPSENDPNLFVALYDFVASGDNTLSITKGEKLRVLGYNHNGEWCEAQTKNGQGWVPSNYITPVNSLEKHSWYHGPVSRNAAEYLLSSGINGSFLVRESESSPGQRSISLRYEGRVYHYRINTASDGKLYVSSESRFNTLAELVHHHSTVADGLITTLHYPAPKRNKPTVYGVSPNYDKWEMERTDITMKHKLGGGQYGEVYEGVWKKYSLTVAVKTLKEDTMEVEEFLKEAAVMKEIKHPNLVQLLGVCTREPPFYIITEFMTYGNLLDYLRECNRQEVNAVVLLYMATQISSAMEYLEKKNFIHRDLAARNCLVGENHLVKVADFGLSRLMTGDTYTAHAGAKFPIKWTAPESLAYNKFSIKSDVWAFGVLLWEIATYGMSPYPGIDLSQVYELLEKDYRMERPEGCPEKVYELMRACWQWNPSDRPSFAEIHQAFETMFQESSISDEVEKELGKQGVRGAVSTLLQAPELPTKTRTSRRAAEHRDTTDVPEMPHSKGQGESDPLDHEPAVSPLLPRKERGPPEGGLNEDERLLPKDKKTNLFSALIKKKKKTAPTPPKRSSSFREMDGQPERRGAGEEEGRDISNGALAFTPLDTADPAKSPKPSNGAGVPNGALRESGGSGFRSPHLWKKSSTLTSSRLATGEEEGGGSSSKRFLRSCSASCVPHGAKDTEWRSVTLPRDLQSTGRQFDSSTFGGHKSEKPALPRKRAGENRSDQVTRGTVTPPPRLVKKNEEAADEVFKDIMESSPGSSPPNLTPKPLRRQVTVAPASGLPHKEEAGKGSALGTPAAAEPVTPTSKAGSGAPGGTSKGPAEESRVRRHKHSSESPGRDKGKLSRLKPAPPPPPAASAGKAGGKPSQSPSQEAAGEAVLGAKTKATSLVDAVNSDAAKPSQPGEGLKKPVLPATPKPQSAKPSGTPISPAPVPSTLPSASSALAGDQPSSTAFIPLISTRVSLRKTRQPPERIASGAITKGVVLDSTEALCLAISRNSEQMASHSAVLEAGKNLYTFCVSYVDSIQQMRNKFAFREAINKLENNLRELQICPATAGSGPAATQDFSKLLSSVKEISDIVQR
Outline: as §1

p38 γ = molecular target: T2, p38 γ (Homo sapiens, UniProt P53778)
T2 construct: gene MAPK12
T2 sequence (P53778 1-367): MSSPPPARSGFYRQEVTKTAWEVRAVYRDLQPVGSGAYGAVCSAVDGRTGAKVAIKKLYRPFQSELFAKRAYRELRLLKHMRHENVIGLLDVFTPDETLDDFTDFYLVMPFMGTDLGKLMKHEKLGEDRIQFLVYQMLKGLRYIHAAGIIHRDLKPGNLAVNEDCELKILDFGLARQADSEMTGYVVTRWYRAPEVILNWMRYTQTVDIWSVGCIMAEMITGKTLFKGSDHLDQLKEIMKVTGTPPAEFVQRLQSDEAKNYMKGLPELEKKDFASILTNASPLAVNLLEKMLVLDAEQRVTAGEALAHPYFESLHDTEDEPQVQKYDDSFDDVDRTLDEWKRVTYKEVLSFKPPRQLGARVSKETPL
Outline: as §1

ERN1 = ERN1 (Homo sapiens, UniProt O75460)
Chain of ERN1 (O75460 whole entry): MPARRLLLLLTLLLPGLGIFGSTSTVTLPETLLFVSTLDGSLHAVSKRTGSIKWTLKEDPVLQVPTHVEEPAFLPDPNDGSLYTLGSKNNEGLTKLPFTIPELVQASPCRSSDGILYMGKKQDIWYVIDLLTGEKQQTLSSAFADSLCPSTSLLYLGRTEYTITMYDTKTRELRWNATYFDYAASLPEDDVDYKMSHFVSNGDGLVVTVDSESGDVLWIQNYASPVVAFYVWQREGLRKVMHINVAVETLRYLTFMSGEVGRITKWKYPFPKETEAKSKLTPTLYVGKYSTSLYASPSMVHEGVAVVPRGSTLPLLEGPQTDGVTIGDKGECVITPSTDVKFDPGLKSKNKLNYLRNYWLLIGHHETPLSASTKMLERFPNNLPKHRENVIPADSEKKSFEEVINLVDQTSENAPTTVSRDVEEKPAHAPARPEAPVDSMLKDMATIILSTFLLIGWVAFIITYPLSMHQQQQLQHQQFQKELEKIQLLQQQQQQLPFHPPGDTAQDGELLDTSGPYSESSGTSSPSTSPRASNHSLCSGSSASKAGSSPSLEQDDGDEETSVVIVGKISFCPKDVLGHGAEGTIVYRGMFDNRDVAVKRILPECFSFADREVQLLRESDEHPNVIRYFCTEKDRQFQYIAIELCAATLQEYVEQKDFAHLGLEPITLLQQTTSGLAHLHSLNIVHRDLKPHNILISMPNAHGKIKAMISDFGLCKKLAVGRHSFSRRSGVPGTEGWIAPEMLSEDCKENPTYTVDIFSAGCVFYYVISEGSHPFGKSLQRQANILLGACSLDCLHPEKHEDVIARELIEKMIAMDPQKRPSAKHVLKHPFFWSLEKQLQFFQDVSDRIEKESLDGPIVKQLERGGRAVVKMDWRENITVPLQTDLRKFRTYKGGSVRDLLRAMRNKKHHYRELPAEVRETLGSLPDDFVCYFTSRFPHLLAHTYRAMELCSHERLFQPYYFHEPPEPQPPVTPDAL
Outline: as §1

MAPKAPK2 = MAPKAPK2 (Homo sapiens, UniProt P49137)
Chain of MAPKAPK2 (P49137 whole entry): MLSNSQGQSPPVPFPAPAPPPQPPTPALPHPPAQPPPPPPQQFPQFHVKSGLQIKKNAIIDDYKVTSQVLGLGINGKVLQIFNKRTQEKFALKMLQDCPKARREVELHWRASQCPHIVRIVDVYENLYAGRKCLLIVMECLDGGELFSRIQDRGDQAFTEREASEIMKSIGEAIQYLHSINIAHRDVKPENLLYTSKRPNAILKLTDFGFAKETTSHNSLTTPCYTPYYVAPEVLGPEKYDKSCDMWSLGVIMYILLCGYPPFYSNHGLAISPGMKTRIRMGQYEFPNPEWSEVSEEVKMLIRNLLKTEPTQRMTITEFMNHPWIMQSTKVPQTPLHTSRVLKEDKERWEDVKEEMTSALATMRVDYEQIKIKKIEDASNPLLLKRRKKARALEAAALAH
Outline: as §1

[1] = read-out: Kinome Profiling performed by Eurofins DiscoverX / AM-0277, 1.0 µM / POC
[2] = read-out: Kinome Profiling performed by Eurofins DiscoverX / AM-1882, 1.0 µM / POC
[3] = read-out: Kinome Profiling performed by Eurofins DiscoverX / AM-5308, 1.0 µM / POC

Chain of INSR (P06213 whole entry): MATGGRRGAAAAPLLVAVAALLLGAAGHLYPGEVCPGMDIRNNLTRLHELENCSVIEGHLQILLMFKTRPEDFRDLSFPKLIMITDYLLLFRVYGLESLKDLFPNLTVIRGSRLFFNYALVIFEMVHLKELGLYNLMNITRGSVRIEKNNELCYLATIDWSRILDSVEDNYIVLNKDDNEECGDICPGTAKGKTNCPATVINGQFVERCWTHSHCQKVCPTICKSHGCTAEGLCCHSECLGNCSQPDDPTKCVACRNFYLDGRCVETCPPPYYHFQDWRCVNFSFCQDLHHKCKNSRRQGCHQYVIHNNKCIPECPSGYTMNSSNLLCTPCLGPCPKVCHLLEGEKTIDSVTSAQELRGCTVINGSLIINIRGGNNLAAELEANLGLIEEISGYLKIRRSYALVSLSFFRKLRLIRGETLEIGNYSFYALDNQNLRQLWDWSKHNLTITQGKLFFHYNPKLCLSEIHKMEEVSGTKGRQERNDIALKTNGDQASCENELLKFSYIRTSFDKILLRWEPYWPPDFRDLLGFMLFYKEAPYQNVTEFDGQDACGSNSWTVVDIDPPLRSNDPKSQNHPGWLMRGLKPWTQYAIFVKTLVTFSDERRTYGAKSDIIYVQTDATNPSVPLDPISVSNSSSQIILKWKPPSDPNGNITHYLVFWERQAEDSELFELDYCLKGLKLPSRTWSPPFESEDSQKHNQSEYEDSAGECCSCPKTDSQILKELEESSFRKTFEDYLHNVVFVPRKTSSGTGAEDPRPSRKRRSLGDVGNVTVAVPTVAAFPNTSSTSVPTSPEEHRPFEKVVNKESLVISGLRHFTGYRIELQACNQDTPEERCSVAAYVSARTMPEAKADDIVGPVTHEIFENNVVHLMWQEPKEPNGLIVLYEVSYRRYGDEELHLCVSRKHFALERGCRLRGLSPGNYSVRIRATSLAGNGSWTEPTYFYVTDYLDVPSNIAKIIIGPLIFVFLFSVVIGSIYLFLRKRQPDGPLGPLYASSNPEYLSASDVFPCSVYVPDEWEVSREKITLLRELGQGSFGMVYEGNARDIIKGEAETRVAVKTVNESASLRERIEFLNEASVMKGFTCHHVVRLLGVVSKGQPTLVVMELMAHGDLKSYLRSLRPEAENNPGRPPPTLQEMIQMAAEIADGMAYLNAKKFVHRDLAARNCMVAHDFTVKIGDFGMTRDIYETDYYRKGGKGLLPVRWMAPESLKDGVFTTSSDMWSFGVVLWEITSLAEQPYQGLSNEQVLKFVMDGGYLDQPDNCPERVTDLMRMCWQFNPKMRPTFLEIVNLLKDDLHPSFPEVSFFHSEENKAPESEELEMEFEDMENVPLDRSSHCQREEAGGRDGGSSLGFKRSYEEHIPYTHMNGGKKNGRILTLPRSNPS

remaining activity at 1 µM (INSR; [1]): 100%
remaining activity at 1 µM (TNIK; [1]): 88%
remaining activity at 1 µM (mTOR; [1]): 100%
remaining activity at 1 µM (CDK2; [1]): 97%
remaining activity at 1 µM (LIMK1; [1]): 95%
remaining activity at 1 µM (Abl_phos; [1]): 46%
remaining activity at 1 µM (p38 γ; [1]): 100%
remaining activity at 1 µM (ERN1; [1]): 100%
remaining activity at 1 µM (MAPKAPK2; [1]): 79%
SMILES: CC(C)(CO)Nc1ccc(C(=O)Nc2cccc(S(=O)(=O)C3CCCC3)c2)c(N2CCC3(CC2)CC3)n1 [AM-0277]

remaining activity at 1 µM (INSR; [2]): 100%
remaining activity at 1 µM (TNIK; [2]): 82%
remaining activity at 1 µM (mTOR; [2]): 98.5%
remaining activity at 1 µM (CDK2; [2]): 100%
remaining activity at 1 µM (LIMK1; [2]): 87%
remaining activity at 1 µM (Abl_phos; [2]): 63.5%
remaining activity at 1 µM (p38 γ; [2]): 100%
remaining activity at 1 µM (ERN1; [2]): 100%
remaining activity at 1 µM (MAPKAPK2; [2]): 95.5%
SMILES: CC(C)(C)NS(=O)(=O)c1cccc(NC(=O)c2ccc(S(=O)(=O)NC(C)(C)C)cc2N2CCC3(CC2)CC3)c1 [AM-1882]

remaining activity at 1 µM (INSR; [3]): 100%
remaining activity at 1 µM (TNIK; [3]): 52.5%
remaining activity at 1 µM (mTOR; [3]): 100%
remaining activity at 1 µM (CDK2; [3]): 94.5%
remaining activity at 1 µM (LIMK1; [3]): 92.5%
remaining activity at 1 µM (Abl_phos; [3]): 98.5%
remaining activity at 1 µM (p38 γ; [3]): 76.5%
remaining activity at 1 µM (ERN1; [3]): 80%
remaining activity at 1 µM (MAPKAPK2; [3]): 95%
SMILES: C[C@@H]1CN(c2cccc(NC(=O)c3ccc(NS(=O)(=O)CCO)cc3N3CCC4(CC3)CC4)n2)CCO1 [AM-5308]
